Here are results for four compounds from EPA's ToxValDB 9.5 (doi:10.2903/j.efsa.2014.3787).

One data set concerns Tagia sp. The settings on record: for LC50: acute, duration: 14 days, mortality; for NOEC: chronic/long-term, duration: 8 weeks.
A further data set concerns Folsomia candida. As to conditions: chronic/long-term, duration: 28 days.
A further data set relates to Hypoaspis aculeifer. The settings on record: acute, duration: 14 days.
In the next data set the test system is Apis mellifera. As to conditions: acute, duration: 72 hours, mortality.
For a further data set, the system named is Coturnix japonica. As to conditions: reproduction developmental; duration: 6 weeks.
The next data set has as its system Lepomis macrochirus. As to conditions: acute; duration: 96 hours; mortality.
Another data set relates to Colinus virginianus. As to conditions: acute, oral.
A further data set has as its system Daphnia magna. The settings on record: chronic/long-term; duration: 21 days; mobility.
The next data set concerns Aphidius rhopalosiphi. Briefly: LR50; higher = less toxic. The settings on record: acute; duration: 48 hours; mortality.
In a further data set the test system is Typhlodromus pyri. Briefly: LR50; higher = less toxic. The settings on record: chronic/long-term; duration: 7 days; mortality.

Regarding `CCOc1nc(N)nc(NC(=O)NS(=O)(=O)c2ccccc2C(=O)OC)n1` [N-Demethyl ethametsulfuronmethyl], in the data set with Tagia sp., the LC50 was over 100 mg/kg. Besides, in the data set on Folsomia candida, the NOEC amounted to 50 mg/kg.

For `CCOc1nc(NC)nc(NC(N)=O)n1` [Ethametsulfuron methyl metabolite (IN-B9161)], the NOEC in the data set with Hypoaspis aculeifer and in the data set with Folsomia candida was 76.9 mg/kg each time.

Turning to `CCOc1nc(NC)nc(NC(=O)NS(=O)(=O)c2ccccc2C(=O)OC)n1` [Ethametsulfuron-methyl], the LC50 was over 126 µg/mL in the data set with Oncorhynchus mykiss (acute, duration: 96 hours, mortality); 116 mg/kg with Tagia sp.; over 123 µg/mL in the data set on Lepomis macrochirus. Besides, the NOEC in the data set on Oncorhynchus mykiss (chronic/long-term, duration: 87 days, growth) is 5.4 mg/L; in the data set on Hypoaspis aculeifer (reproduction), 100 mg/kg; in the data set with Coturnix japonica, 229 mg/kg-day; in the data set with Tagia sp. (reproduction), 27.3 mg/kg; with Daphnia magna it was 4.7 mg/L; with Folsomia candida (reproduction) it was 100 mg/kg. The LD50 with Apis mellifera (dermal) is 4.62 µg/piece; with Apis mellifera (oral, unspecified) it was 40.8 µg/piece; in the data set with Rattus norvegicus (acute, oral, mortality), over 5000 mg/kg-day; in the data set on Colinus virginianus (duration: 5 days, diet) it was over 1160 mg/kg-day; in the data set on Colinus virginianus, 2250 mg/kg-day. The NOAEL – broadly, the highest dose or exposure tested at which no adverse effect was seen – in the data set with Rattus norvegicus (chronic, duration: 2 years, clinical chemistry) stood at 21 mg/kg-day; with Oryctolagus sp. (reproduction developmental, organ weight), 250 mg/kg-day. The LOAEL (commonly the lowest dose or exposure tested at which an adverse effect was seen) in the data set on Oryctolagus sp. (developmental, development) was 250 mg/kg-day. For the same compound, the LR50 was over 18.8 g/ha in the data set on Aphidius rhopalosiphi and over 11.4 g/ha in the data set with Typhlodromus pyri.

Consider `NS(=O)(=O)c1ccccc1C(=O)O` [2-Sulfamoylbenzoic acid], for which, in the data set on Tagia sp., the LC50 is over 1000 mg/kg and the NOEC worked out at 1000 mg/kg.
